Source: patent US7763269B2, “Therapeutic foam” (BTG International Ltd., priority 2003, dated 2010)

Assay: in vitro absorption of foam/gas in fresh human venous blood
Assay type: in vitro ADME
Details: 0.5 ml aliquot in 20 ml stirred blood
Method: In vitro experiments were conducted to determine the absorption of foam made with different gases in fresh human venous blood.
A 20 ml polypropylene syringe barrel was prepared by puncturing its side wall with a relatively large hypodermic needle to make a hole approximately 1 mm in diameter. This hole was then covered by securing a piece of clear flexible vinyl sheet over it with clear adhesive tape. A small magnetic stirrer element was introduced into the syringe barrel and the plunger then replaced. 20 ml of human venous blood was then with withdrawn in the usual manner from a human subject using the specially prepared syringe fitted with a hypodermic needle.
The hypodermic needle was removed and the syringe then placed on a magnetic stirrer unit so that the magnetic element in the syringe thoroughly agitated the blood. […]
The needle of the 0.5 ml syringe was then introduced through the vinyl sheet on the side wall of the 20 ml syringe. […] It was determined that a distance of 45 intervals on this scale corresponded to an internal volume of in the manometer tubing of approximately 0.5 ml. […]
In this experiment, the air foam test was only observed for a few minutes after tF. However, further experiments have been conducted by the inventors, the results of which are not formally recorded here, involving foam with a percentage of nitrogen. […]

O=O [Oxygen gas, oxygen]
Absorbed volume at tF: 0.46 mL
tF (time until blood column stopped moving): 140 s
